Reference: publication PMC7463460, “Structure and Antiparasitic Activity Relationship of Alkylphosphocholine Analogues against Leishmania donovani” (Microorganisms, 2020)
Values joined by “and” are separate entries in the source; they are usually repeats but may differ in a detail not shown here. Equal entries are not always repeated.

Experiments:
Assay type in all cases: cell-based, Leishmania donovani
[1] = test system: L. donovani 087/11 (Sb-intermediate) intracellular amastigotes; assay: Intracellular amastigote assay, Sb-intermediate strain 087/11; conditions: for IC50: Leishmania donovani, read-out: Mean IC50 Amastigotes; for Cross-Resistance Index (CRI50) Amast: strain 087/11, Sb-intermediate vs Sb-S; for Selectivity Index (SI50): strain 087/11, Sb-intermediate, macrophage CC50 / amastigote IC50
Excerpt: (§1) L. donovani cloned strains with different Sb susceptibility backgrounds were derived from isolates obtained from VL patients at the B.P. Koirala Institute of Health Sciences, Dharan, Nepal: MHOM/NP/02/BPK282/0cl4 (Sb sensitive, Sb-S). MHOM/NP/02/BPK087/0cl11 (Sb intermediate, Sb-I) and MHOM/NP/02/BPK275/0cl18 (Sb resistance, Sb-R [13]). In addition, Milt-resistant parasites raised against these three Sb sensitivity backgrounds and the Sb-sensitive strain (MHOM/ET/67:LV82) was also used in studies. Luciferase expressing promastigotes for the LV82 and Nepalese strains were prepared using previously published methods and the integrative construct (a gift from Dr D.F. Smith), designated pGL1313, contained pSSU-int fragments to facilitate integration into the ribosomal RNA locus of Leishmania.
In the macrophage studies, the method described in previous studies was used as follows. Briefly, bone-marrow-derived BALB/c macrophages (1–2 × 10^5) in 100 µL complete RPMI 1640 medium were added to the wells of a 96 well plate and left to adhere for 24 h at 37 °C, 5% CO₂/95% air. The medium was removed and 100 µL of the appropriate L. donovani luciferase-expressing promastigotes line (parasite: host cell ratio 1:10, 1:20 or 1:40) was added to each well, the ratio used reflected the infectivity of the strain and ensured that control data gave a bioluminescent signal within the same range. […] The variability in infectivity complicates strain to strain comparisons, but we decided to focus on achieving good infection levels in controls so that the effect of drug treatment could be determined. It is possible that intracellular macrophage parasites could have been at different developmental stages at 24 h post-infection. […] Therefore, we assumed that the effect of compounds on the amastigote stage rather than the promastigotes stage was determined in in vitro macrophage studies.
The plate was incubated for a further 24 h, the medium removed, and each well washed with PBS to eliminate non-internalized parasites, which were monitored microscopically. When the wells were devoid of external parasites, 100 µL of the medium alone (control) or appropriate APC compound was then added (0.01–0.197 µg/mL, n = 3/treatment). […]. All plates were incubated for 72 h at 37 °C, 5% CO₂/95% air. Wells with macrophage and with no drug or promastigotes added were used in control experiments.
(§2) Luciferin solution (1 µg/mL in 20 µL medium without FCS) was added to the appropriate wells of the 96-well plate at the end of the experiment and the amount of light emitted/well was measured using a luminometer (Biotek Synergy HT, relative light units) using a wavelength/bandwidth of 440/40 nm, or IVIS® imaging (Spectrum Living Image system®, total flux, photons/sec).
The effect of drug treatment on parasite survival was determined by calculating the mean suppression in the light emitted from the drug-treated experimental sample compared to the mean control value and used to calculate the IC50 using Grafit® software (version 5.0, Erithacus Software, East Grinstead, West Sussex, UK). The effect of drug alone on the viability of uninfected macrophages was determined using the same experimental protocol above, but cell viability was determined using an alamar blue colorimetric assay. At the end of the incubation period, cells’ 10 µL resazurin solution (0.02% w/v) was added to control and drug treated cells and the absorbance of samples was read at 575 and 595 nm. The effect of drug treatment on cell survival, which correlates with the magnitude of dye reduction, was expressed as percentage viability (or alamar blue reduction) and determined using the formula provided in the manufacturer’s protocol % alamar blue reduction=(εoxλ)(Aλ1)−(εoxλ1)(Aλ2)/(εredλ1)(A^′λ2)−(εredλ2)(A^′λ1)x100 […]

[2] = test system: L. donovani 282/4 Milt-Sb-sensitive promastigotes; assay: Promastigote luciferase assay, Milt-resistant 282/4; conditions: for IC50: Leishmania donovani, read-out: Mean IC50 Value Promastigotes; for Promast: Amast Ratio: strain 282/4, Milt-Sb-sensitive
Excerpt: as §1
The anti-leishmanial activity of APC against L. donovani luciferase-expressing promastigotes was determined by adding of the appropriate 100 µL parasite line (10^6 cells/mL) to the wells of a 96-well plate and adding 100 µL medium alone (controls) or 100 µL of APC compound (0.01 µg/mL–6.25 µg/mL, n = 3/treatment). The plate was incubated for 72 h at 25 °C. In combination assays, the additional compound/compounds, at a final concentration of 0.195 or 0.39 µg/mL, was added to the initial APC being tested.
as §2
(§3) The effect of drug treatment on parasite survival was determined by calculating the mean suppression in the light emitted from the drug-treated experimental sample compared to the mean control value and used to calculate the IC50 using Grafit® software (version 5.0, Erithacus Software, East Grinstead, West Sussex, UK). The effect of drug alone on the viability of uninfected macrophages was determined using the same experimental protocol above, but cell viability was determined using an alamar blue colorimetric assay. At the end of the incubation period, cells’ 10 µL resazurin solution (0.02% w/v) was added to control and drug treated cells and the absorbance of samples was read at 575 and 595 nm. The effect of drug treatment on cell survival, which correlates with the magnitude of dye reduction, was expressed as percentage viability (or alamar blue reduction) and determined using the formula provided in the manufacturer’s protocol % alamar blue reduction=(εoxλ)(Aλ1)−(εoxλ1)(Aλ2)/(εredλ1)(A^′λ2)−(εredλ2)(A^′λ1)x100

[3] = test system: L. donovani 087/11 Milt-Sb-intermediate promastigotes; assay: Promastigote luciferase assay, Milt-resistant 087/11; conditions: for IC50: Leishmania donovani, read-out: Mean IC50 Value Promastigotes; for Cross-Resistance Index (CRI50) Promast / Promast: Amast Ratio: strain 087/11, Milt-Sb-intermediate
Excerpt: as §1
The anti-leishmanial activity of APC against L. donovani luciferase-expressing promastigotes was determined by adding of the appropriate 100 µL parasite line (10^6 cells/mL) to the wells of a 96-well plate and adding 100 µL medium alone (controls) or 100 µL of APC compound (0.01 µg/mL–6.25 µg/mL, n = 3/treatment). […].
as §2, §3
Cross resistance (CRI50) indexes were determined as Cross selectivity indices (CRI)=mean IC50 value for the relevant drug−resistant strain i.e., Sb−I or Sb−R / mean IC50 value drug−sensitive strain Sb−S

| Structure (SMILES) | IC50 [1] | Cross-Resistance Index (CRI50) Amast [1] | Selectivity Index (SI50) [1] | IC50 [2] | Promast: Amast Ratio [2] | IC50 [3] | Cross-Resistance Index (CRI50) Promast [3] | Promast: Amast Ratio [3] |
| --- | --- | --- | --- | --- | --- | --- | --- | --- |
| CCCCCCCCCCCCOP(=O)([O-])OCC[N+](C)(C)C [APC12, dodecylphosphocholine] | 0.2 µg/mL and 570 nM | 0.77 | 176.90 | > 125 µg/mL and > 356 µM | >1562.5 | 184 µg/mL and 520 µM | > 1.47 | 29.82 |
| CCCCCCCCCCCCCCOP(=O)([O-])OCC[N+](C)(C)C [APC14, tetradecylphosphocholine] | 0.19 µg/mL and 500 nM | 1.58 | 215.21 | > 125 µg/mL and > 329 µM | >72.25 | 232 µg/mL and 630 µM | > 1.86 | 23.13 |
| CCCCCCCCCCCCCCCCOP(=O)([O-])OCC[N+](C)(C)C [APC16, hexadecylphosphocholine, reference compound] | 0.29 µg/mL and 710 nM | – | – | > 125 µg/mL and > 307 µM | >77.64 | 242 µg/mL and 560 µM | – | 19.13 |
